Measured values published in patent US20230339878A1, “SLC26A3 INHIBITORS AND USE THEREOF” (THE REGENTS OF THE UNIVERSITY OF CALIFORNIA, priority 2018, published 2023).
Entries after “also recorded” stand apart in the source; their conditions may differ.

Tests used:
slc26a9 = molecular target: T1, slc26a9 (Mus musculus, UniProt Q8BU91); assay: Selectivity: slc26a9 Cl-/I- exchange in HEK293 cells; assay type: cell-based, murine; conditions: 10 µM
T1 construct: host or cells: HEK293 cells
T1 sequence (Q8BU91 1-790): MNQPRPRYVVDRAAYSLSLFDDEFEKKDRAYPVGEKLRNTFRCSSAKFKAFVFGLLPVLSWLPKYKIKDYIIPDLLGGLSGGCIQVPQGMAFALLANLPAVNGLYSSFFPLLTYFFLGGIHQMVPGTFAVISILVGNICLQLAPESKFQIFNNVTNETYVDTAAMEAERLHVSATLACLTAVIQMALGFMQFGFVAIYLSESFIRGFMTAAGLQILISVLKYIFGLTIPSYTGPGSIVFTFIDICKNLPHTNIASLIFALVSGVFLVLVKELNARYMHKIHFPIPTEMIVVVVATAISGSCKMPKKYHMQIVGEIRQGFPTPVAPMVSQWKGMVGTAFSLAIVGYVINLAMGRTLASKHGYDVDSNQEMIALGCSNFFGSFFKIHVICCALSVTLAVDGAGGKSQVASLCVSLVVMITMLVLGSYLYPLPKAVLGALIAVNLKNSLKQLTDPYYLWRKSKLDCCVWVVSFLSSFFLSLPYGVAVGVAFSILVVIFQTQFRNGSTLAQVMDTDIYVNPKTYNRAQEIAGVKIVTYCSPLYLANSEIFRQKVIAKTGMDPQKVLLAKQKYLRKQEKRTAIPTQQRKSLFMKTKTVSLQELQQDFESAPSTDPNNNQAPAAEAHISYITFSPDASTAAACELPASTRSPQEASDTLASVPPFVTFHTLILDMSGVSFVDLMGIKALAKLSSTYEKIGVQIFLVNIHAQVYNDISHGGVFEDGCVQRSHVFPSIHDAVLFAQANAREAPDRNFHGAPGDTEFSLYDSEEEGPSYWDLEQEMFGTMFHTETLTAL
Text: To investigate Compound A1 selectivity, transport assays were done on a panel of SLC26-family homologs, and other relevant epithelial ion transporters and channels. […] In separate studies, to investigate possible action of Compound A1 on multiple ion transporters and channels in a human epithelium, human bronchial epithelial (HBE) cells were studied by short-circuit current, with successive additions of amiloride (to block the epithelial sodium channel ENaC), forskolin, CFTRinh-172 (to block CFTR), and ATP (to activate the Ca^2+-activated chloride channel, CaCC) (FIG. 5C).
HEK293 cells transfected with pIRES-YFP-slc26a9 were plated in 96-well black-walled, clear-bottom tissue culture plates (Corning Life Sciences, Tewksbury, MA) after coating with FNC Coating Mix (AthenaES, Baltimore, MD). […] Assays of slc26a9-mediated anion exchange were done by initially recording YFP fluorescence prior to addition of 100 µL of NaI-substituted PBS to test wells, with the initial rate of Cl^-/I^- exchange deduced from fluorescence intensity by single exponential regression. […] To assay SLC26A3 function, HEK293 cells transduced with lentiviral particles generated from the pLVX-IRES-mCherry-SLC26A3 transfer vector were transfected to express YFP for Cl^-/I^- exchange assays as described above; red fluorescence images were acquired to confirm SLC26A3 expression in cells. […]

[1] = tested on: cystic fibrosis (CF) mice (ΔF508 homozygous) lacking functional CFTR; assay: Loperamide-induced constipation model in cystic fibrosis mice; assay type: in vivo; conditions: 5 mg/kg oral
Description: Female CD1 mice (age 8-10 weeks) were administered loperamide (0.3 mg/kg, intraperitoneally, Sigma-Aldrich) to produce constipation. Compound A1 (DRAinh-A250) (5 mg/kg, in saline containing vehicle (5% DMSO and 10% Kolliphor HS 15; Sigma-Aldrich)), tenapanor (5 mg/kg, in vehicle), both compounds (5 mg/kg each, in vehicle), or vehicle alone were administered by oral gavage 1 hour before loperamide. After loperamide injection, mice were placed individually in metabolic cages with ad libitum access to food and water. Stool samples were collected for 3 h, and total stool weight and number of fecal pellets were quantified. To measure stool water content, stool samples were dried at 80° C. for 24 h and water content was calculated as [wet weight-dry weight]/wet weight. Similar studies were done in cystic fibrosis (CF) mice (ΔF508 homozygous) lacking functional CFTR.

Cc1c(CC(=O)O)c(=O)oc2c(C)c(OCc3cccc(Br)c3)ccc12 [Compound A1]
effect on Cl-/I- exchange activity of slc26a9 (slc26a9): did not alter; also recorded: differences not significant
efficacy in loperamide-induced constipation in CF mice [1]: effective in loperamide-treated cystic fibrosis mice; also recorded: reduces loperamide-induced constipation
